# Values quoted from earlier work in patent US20110105387A1 (priority 2009, published 2011).
# Tests used:
# [1] = literature
# [2] = literature; remark: listed apart in the source
SMILES,water solubility [1],time to attain peak concentrations ([2]; after oral dosing),"increase in AUC with a high-fat meal ([2]; high-fat meal, slower rate of absorption)",excreted in urine [2]
CO[C@H]1C[C@@H]2CC[C@@H](C)[C@@](O)(O2)C(=O)C(=O)N2CCCC[C@H]2C(=O)O[C@H]([C@H](C)C[C@@H]2CC[C@@H](OC(=O)C(C)(CO)CO)[C@H](OC)C2)CC(=O)[C@H](C)/C=C(\C)[C@@H](O)[C@@H](OC)C(=O)[C@H](C)C[C@H](C)/C=C/C=C/C=C/1C [CCI-779],~120 µg/mL,–,–,–
CO[C@H]1C[C@@H]2CC[C@@H](C)[C@@](O)(O2)C(=O)C(=O)N2CCCC[C@H]2C(=O)O[C@H]([C@H](C)C[C@@H]2CC[C@@H](O)[C@H](OC)C2)CC(=O)[C@H](C)/C=C(\C)[C@@H](O)[C@@H](OC)C(=O)[C@H](C)C[C@H](C)/C=C/C=C/C=C/1C [rapamycin],–,≤ 2 h,35%,< 3%
